In ChEMBL document CHEMBL5625252, “Synthesis of peptidomimetics as antibiotic adjuvants for combination with aztreonam to combat MDR Pseudomonas aeruginosa” (Eur J Med Chem, 2023):
Converted amounts (≈) assume the structure as drawn. The source made the active and inactive calls. The calls are words filed in the database; no cut-off is given here.

How the values were obtained:
Pseudomonas aeruginosa [1] = experiment: Antibacterial activity against Pseudomonas aeruginosa PAO1 assessed as inhibition of bacterial growth incubated for 18 hrs by agar dilution method; format: functional
Pseudomonas aeruginosa [2] = experiment: Synergistic antibacterial activity against Pseudomonas aeruginosa 16-11 assessed as aztreonam MIC in CAMH broth medium supplemented with 0.41 to 0.51 mM Mg2+ by checkerboard assay; format: functional
Pseudomonas aeruginosa [3] = experiment: Antibacterial activity against Pseudomonas aeruginosa 23-Y511 assessed as inhibition of bacterial growth incubated for 18 hrs by agar dilution method; format: functional
Pseudomonas aeruginosa [4] = experiment: Antibacterial activity against Pseudomonas aeruginosa PAO1 at 128 ug/ml measured upto 24 hrs by time-kill assay; format: functional, organism-based; details: dose 128.0 µg/ml
Pseudomonas aeruginosa [5] = experiment: Synergistic antibacterial activity against Pseudomonas aeruginosa 13-35 assessed as aztreonam MIC in CAMH broth medium supplemented with 20.99 to 21.09 mM Mg2+ by checkerboard assay; format: functional
Pseudomonas aeruginosa [6] = experiment: Synergistic antibacterial activity against Pseudomonas aeruginosa 21-2 assessed as aztreonam MIC at 128 ug/ml incubated for 18 hrs by checkerboard method; format: functional; details: dose 128 µg/ml
Pseudomonas aeruginosa [7] = experiment: Antibacterial activity against Pseudomonas aeruginosa PAO1 infected in Galleria mellonella assessed as increase in larvae survival at 100 mg/kg measured after 96 hrs post inoculation in presence of 25 mg/kg aztreonam; format: functional
Pseudomonas aeruginosa [8] = experiment: Antibacterial activity against Pseudomonas aeruginosa 16-2 at 128 ug/ml measured upto 24 hrs in presence of aztreonam by time-kill assay; format: functional, organism-based; details: dose 128.0 µg/ml
Pseudomonas aeruginosa [9] = experiment: Synergistic antibacterial activity against Pseudomonas aeruginosa PAO1 assessed as aztreonam MIC at 128 ug/ml incubated for 18 hrs by checkerboard method; format: functional; details: dose 128 µg/ml
Pseudomonas aeruginosa [10] = experiment: Synergistic antibacterial activity against Pseudomonas aeruginosa 19-46 assessed as aztreonam MIC at 128 ug/ml incubated for 18 hrs by checkerboard method; format: functional; details: dose 128 µg/ml
Pseudomonas aeruginosa [11] = experiment: Synergistic antibacterial activity against Pseudomonas aeruginosa 21-8 assessed as aztreonam MIC at 128 ug/ml incubated for 18 hrs by checkerboard method; format: functional; details: dose 128 µg/ml
Pseudomonas aeruginosa [12] = experiment: Synergistic antibacterial activity against Pseudomonas aeruginosa 13-3 assessed as aztreonam MIC at 128 ug/ml incubated for 18 hrs by checkerboard method; format: functional; details: dose 128 µg/ml
Pseudomonas aeruginosa [13] = experiment: Antibacterial activity against Pseudomonas aeruginosa 13-17 assessed as inhibition of bacterial growth incubated for 18 hrs by agar dilution method; format: functional
Pseudomonas aeruginosa [14] = experiment: Inhibition of Pseudomonas aeruginosa 26 MexAB-OprM assessed as accumulation of Hoechst […] at 64 ug/ml; details: dose 64.0 µg/ml
Pseudomonas aeruginosa [15] = experiment: Antibacterial activity against Pseudomonas aeruginosa 16-2 infected in Galleria mellonella assessed as larvae survival rate at 100 mg/kg after 96 hrs of innoculation; format: functional
Pseudomonas aeruginosa [16] = experiment: Synergistic antibacterial activity against Pseudomonas aeruginosa 16-11 assessed as aztreonam MIC at 128 ug/ml incubated for 18 hrs by checkerboard method; format: functional; details: dose 128 µg/ml
Pseudomonas aeruginosa [17] = experiment: Antibacterial activity against Pseudomonas aeruginosa 19-46 assessed as inhibition of bacterial growth incubated for 18 hrs by agar dilution method; format: functional
Pseudomonas aeruginosa [18] = experiment: Antibacterial activity against Pseudomonas aeruginosa 23-Y122 assessed as inhibition of bacterial growth incubated for 18 hrs by agar dilution method; format: functional
Pseudomonas aeruginosa [19] = experiment: Antibacterial activity against Pseudomonas aeruginosa 23-Y539 assessed as inhibition of bacterial growth incubated for 18 hrs by agar dilution method; format: functional
Pseudomonas aeruginosa [20] = experiment: Antibacterial activity against Pseudomonas aeruginosa PAO1 assessed as decrease in log10 CFU at 128 ug/ml measured after 24 hrs in presence of aztreonam by time-kill assay; format: functional; details: dose 128 µg/ml
Pseudomonas aeruginosa [21] = experiment: Antibacterial activity against Pseudomonas aeruginosa PAO1 infected in Galleria mellonella assessed as larvae survival rate at 100 mg/kg measured after 96 hrs post inoculation in presence of 50 mg/kg aztreonam; format: functional
Pseudomonas aeruginosa [22] = experiment: Synergistic antibacterial activity against Pseudomonas aeruginosa 12-1 assessed as aztreonam MIC in CAMH broth medium supplemented with 20.99 to 21.09 mM Mg2+ by checkerboard assay; format: functional
Pseudomonas aeruginosa [23] = experiment: Synergistic antibacterial activity against Pseudomonas aeruginosa 16-2 assessed as aztreonam MIC at 128 ug/ml incubated for 18 hrs by checkerboard method; format: functional; details: dose 128 µg/ml
Pseudomonas aeruginosa [24] = experiment: Synergistic antibacterial activity against Pseudomonas aeruginosa PAO1 assessed as aztreonam MIC in CAMH broth medium supplemented with 20.99 to 21.09 mM Mg2+ by checkerboard assay; format: functional
Pseudomonas aeruginosa [25] = experiment: Antibacterial activity against Pseudomonas aeruginosa 19-55 assessed as inhibition of bacterial growth incubated for 18 hrs by agar dilution method; format: functional
Pseudomonas aeruginosa [26] = experiment: Synergistic antibacterial activity against Pseudomonas aeruginosa 23-Y372 assessed as aztreonam MIC at 128 ug/ml incubated for 18 hrs by checkerboard method; format: functional; details: dose 128 µg/ml
Pseudomonas aeruginosa [27] = experiment: Antibacterial activity against Pseudomonas aeruginosa 16-2 at 128 ug/ml measured upto 24 hrs by time-kill assay; format: functional, organism-based; details: dose 128.0 µg/ml
Pseudomonas aeruginosa [28] = experiment: Synergistic antibacterial activity against Pseudomonas aeruginosa 21-7 assessed as aztreonam MIC at 128 ug/ml incubated for 18 hrs by checkerboard method; format: functional; details: dose 128 µg/ml

`NCCC[C@H](NC(=O)C[C@@H](N)Cc1ccccc1)C(=O)Nc1ccc2ccccc2c1` showed an MIC (Pseudomonas aeruginosa [1]) of 512 µg/mL (≈ 1220 µM), an MIC (Pseudomonas aeruginosa [2]) of 2 µg/mL and an MIC (Pseudomonas aeruginosa [3]) of 256 µg/mL (≈ 612 µM). For the same molecule, the Activity (Pseudomonas aeruginosa [4]) was “inactive”, the MIC (Pseudomonas aeruginosa [5]) was 32 µg/mL and the MIC (Pseudomonas aeruginosa [6]) was 16 µg/mL. The Activity (Pseudomonas aeruginosa [7]) was 40%, the Activity (Pseudomonas aeruginosa [8]) was “Active” and the MIC (Pseudomonas aeruginosa [9]) was 2 µg/mL. It also gave an MIC (Pseudomonas aeruginosa [10]) of 16 µg/mL, an MIC (Pseudomonas aeruginosa [11]) of 2 µg/mL and an MIC (Pseudomonas aeruginosa [12]) of 8 µg/mL. The MIC (Pseudomonas aeruginosa [13]) was 512 µg/mL (≈ 1220 µM), the inhibition (Pseudomonas aeruginosa [14]) was “Active” and the Activity (Pseudomonas aeruginosa [15]) was 20%. The MIC (Pseudomonas aeruginosa [16]) was 2 µg/mL, the MIC (Pseudomonas aeruginosa [17]) was 512 µg/mL (≈ 1220 µM) and the MIC (Pseudomonas aeruginosa [18]) was 512 µg/mL (≈ 1220 µM). For the same molecule, the MIC (Pseudomonas aeruginosa [19]) was 512 µg/mL (≈ 1220 µM), the Activity (Pseudomonas aeruginosa [20]) was over 2 log10CFU/ml and the Activity (Pseudomonas aeruginosa [21]) was 80%. For the same molecule, the MIC (Pseudomonas aeruginosa [22]) was 64 µg/mL, the MIC (Pseudomonas aeruginosa [23]) was 16 µg/mL and the MIC (Pseudomonas aeruginosa [24]) was 8 µg/mL. The MIC (Pseudomonas aeruginosa [25]) was 512 µg/mL (≈ 1220 µM), the MIC (Pseudomonas aeruginosa [26]) was 4 µg/mL and the Activity (Pseudomonas aeruginosa [27]) was “inactive”. It also gave an MIC (Pseudomonas aeruginosa [28]) of 64 µg/mL.
